Measured values published in PMC11157767 (Molecular Cancer, 2024).

Test system: TFG-MET allograft tumors
Assay: RNA-sequencing, differential expression and GSEA of TFG-MET allograft tumors
Assay type: in vivo, mouse
Details: for NES / ES: CAP v Veh
Procedure: Error bars display standard error of mean, statistical significance was determined using t-test analysis. (****;p<0.0001, ***;p<0.001, **;p<0.01, *;p<0.05). […] Each dot represents an individual replicate. Error bars display standard error of the mean.
Each dot represents one gene.

**Q.** Which results are given for `CNC(=O)c1ccc(-c2cnc3ncc(Cc4ccc5ncccc5c4)n3n2)cc1F` [Capmatinib]?
**A.** NES (GOMF_METHYL_CPG_BINDING, padj 0.00511198): -1.901; ES (GOMF_MHC_CLASS_I_PROTEIN_BINDING): 0.5483; NES (GOMF_MHC_CLASS_I_PROTEIN_BINDING, padj 0.0474647): 1.828; ES (GOMF_MHC_PROTEIN_BINDING): 0.5523; NES (GOMF_MHC_PROTEIN_BINDING, padj 0.00543159): 2.003; ES (GOMF_MHC_PROTEIN_COMPLEX_BINDING): 0.5077; NES (GOMF_MHC_PROTEIN_COMPLEX_BINDING, padj 0.0199782): 1.841; ES (GOMF_MOLECULAR_CARRIER_ACTIVITY): -0.4555; NES (GOMF_MOLECULAR_CARRIER_ACTIVITY, padj 0.0120933): -1.714; ES (GOMF_MONOCARBOXYLIC_ACID_BINDING): 0.3828; NES (GOMF_MONOCARBOXYLIC_ACID_BINDING, padj 0.0474647): 1.672; ES (GOMF_MRNA_3_UTR_AU_RICH_REGION_BINDING): -0.5181; NES (GOMF_MRNA_3_UTR_AU_RICH_REGION_BINDING, padj 0.0473079): -1.618; NES (GOMF_NUCLEAR_HORMONE_RECEPTOR_BINDING, padj 0.072562): -1.431; ES (GOMF_NUCLEAR_IMPORT_SIGNAL_RECEPTOR_ACTIVITY): -0.6033; NES (GOMF_NUCLEAR_IMPORT_SIGNAL_RECEPTOR_ACTIVITY, padj 0.0320889): -1.75; ES (GOMF_NUCLEAR_LOCALIZATION_SEQUENCE_BINDING): -0.6311; NES (GOMF_NUCLEAR_LOCALIZATION_SEQUENCE_BINDING, padj 0.00765978): -1.864; ES (GOMF_NUCLEOSOMAL_DNA_BINDING): -0.5966; NES (GOMF_NUCLEOSOMAL_DNA_BINDING, padj 0.0072907): -1.89; ES (GOMF_N_ACETYLTRANSFERASE_ACTIVITY): -0.4164; NES (GOMF_N_ACETYLTRANSFERASE_ACTIVITY, padj 0.0419799): -1.576; ES (GOMF_N_ACYLTRANSFERASE_ACTIVITY): -0.4102; NES (GOMF_N_ACYLTRANSFERASE_ACTIVITY, padj 0.0206273): -1.607; ES (GOMF_OXIDOREDUCTASE_ACTIVITY_ACTING_ON_PEROXIDE_AS_ACCEPTOR): 0.4091; NES (GOMF_OXIDOREDUCTASE_ACTIVITY_ACTING_ON_PEROXIDE_AS_ACCEPTOR, padj 0.0419799): 1.715; ES (GOMF_PATTERN_RECOGNITION_RECEPTOR_ACTIVITY): 0.5546; NES (GOMF_PATTERN_RECOGNITION_RECEPTOR_ACTIVITY, padj 0.0257673): 1.913; ES (GOMF_PEPTIDE_LYSINE_N_ACETYLTRANSFERASE_ACTIVITY): -0.4722; NES (GOMF_PEPTIDE_LYSINE_N_ACETYLTRANSFERASE_ACTIVITY, padj 0.0420426): -1.64; ES (GOMF_PEPTIDE_N_ACETYLTRANSFERASE_ACTIVITY): -0.5177; NES (GOMF_PEPTIDE_N_ACETYLTRANSFERASE_ACTIVITY, padj 0.00513885): -1.848; ES (GOMF_PHOSPHATIDYLINOSITOL_BINDING): -0.3004; NES (GOMF_PHOSPHATIDYLINOSITOL_BINDING, padj 0.0651825): -1.368; ES (GOMF_POLY_A_BINDING): -0.5704; NES (GOMF_POLY_A_BINDING, padj 0.0381242): -1.705; ES (GOMF_POLY_PURINE_TRACT_BINDING): -0.5827; NES (GOMF_POLY_PURINE_TRACT_BINDING, padj 0.00978552): -1.871; ES (GOMF_POLY_PYRIMIDINE_TRACT_BINDING): -0.5996; NES (GOMF_POLY_PYRIMIDINE_TRACT_BINDING, padj 0.0067416): -1.9; ES (GOMF_PROMOTER_SPECIFIC_CHROMATIN_BINDING): -0.4442; NES (GOMF_PROMOTER_SPECIFIC_CHROMATIN_BINDING, padj 0.0320889): -1.624; ES (GOMF_PROTEIN_DEMETHYLASE_ACTIVITY): -0.5705; NES (GOMF_PROTEIN_DEMETHYLASE_ACTIVITY, padj 0.0162496): -1.8078; ES (GOMF_PROTEIN_DIMERIZATION_ACTIVITY): -0.2556; NES (GOMF_PROTEIN_DIMERIZATION_ACTIVITY, padj 0.0359639): -1.243; ES (GOMF_PROTEIN_HETERODIMERIZATION_ACTIVITY): -0.3318; NES (GOMF_PROTEIN_HETERODIMERIZATION_ACTIVITY, padj 0.0174921): -1.498; ES (GOMF_PROTEIN_KINASE_ACTIVITY): -0.2726; NES (GOMF_PROTEIN_KINASE_ACTIVITY, padj 0.0456955): -1.304; ES (GOMF_PROTEIN_PHOSPHATASE_2A_BINDING): -0.5386; NES (GOMF_PROTEIN_PHOSPHATASE_2A_BINDING, padj 0.0201355): -1.753; ES (GOMF_PROTEIN_SERINE_THREONINE_KINASE_ACTIVITY): -0.3032; NES (GOMF_PROTEIN_SERINE_THREONINE_KINASE_ACTIVITY, padj 0.0120933): -1.428; ES (GOMF_PROTEIN_TYROSINE_PHOSPHATASE_ACTIVITY): -0.3851; NES (GOMF_PROTEIN_TYROSINE_PHOSPHATASE_ACTIVITY, padj 0.0351889): -1.569; ES (GOMF_PROTON_CHANNEL_ACTIVITY): 0.5654; NES (GOMF_PROTON_CHANNEL_ACTIVITY, padj 0.036911): 1.8848; ES (GOMF_PROTON_TRANSPORTING_ATP_SYNTHASE_ACTIVITY_ROTATIONAL_MECHANISM): 0.5869; NES (GOMF_PROTON_TRANSPORTING_ATP_SYNTHASE_ACTIVITY_ROTATIONAL_MECHANISM, padj 0.0283897): 1.877; ES (GOMF_REGULATORY_RNA_BINDING): -0.5385; NES (GOMF_REGULATORY_RNA_BINDING, padj 0.00683082): -1.8485; ES (GOMF_RIBONUCLEOPROTEIN_COMPLEX_BINDING): -0.5611; NES (GOMF_RIBONUCLEOPROTEIN_COMPLEX_BINDING, padj 7.15005e-11): -2.398; ES (GOMF_RNA_POLYMERASE_CORE_ENZYME_BINDING): -0.5304; NES (GOMF_RNA_POLYMERASE_CORE_ENZYME_BINDING, padj 0.00672226): -1.848; ES (GOMF_RNA_POLYMERASE_II_SPECIFIC_DNA_BINDING_TRANSCRIPTION_FACTOR_BINDING): -0.3093; NES (GOMF_RNA_POLYMERASE_II_SPECIFIC_DNA_BINDING_TRANSCRIPTION_FACTOR_BINDING, padj 0.0419799): -1.413; ES (GOMF_RNA_POLYMERASE_II_TRANSCRIPTION_COREGULATOR_BINDING): -0.521; NES (GOMF_RNA_POLYMERASE_II_TRANSCRIPTION_COREGULATOR_BINDING, padj 0.0452435): -1.627; ES (GOMF_RNA_POLYMERASE_II_TRANSCRIPTION_COREPRESSOR_BINDING): -0.5717; NES (GOMF_RNA_POLYMERASE_II_TRANSCRIPTION_COREPRESSOR_BINDING, padj 0.0607303): -1.658; ES (GOMF_SCAVENGER_RECEPTOR_ACTIVITY): 0.3949; NES (GOMF_SCAVENGER_RECEPTOR_ACTIVITY, padj 0.0600708): 1.665; ES (GOMF_SMAD_BINDING): -0.4569; NES (GOMF_SMAD_BINDING, padj 0.00360904): -1.79; ES (GOMF_SNORNA_BINDING): -0.7989; NES (GOMF_SNORNA_BINDING, padj 3.3197e-10): -2.624; ES (GOMF_SUMO_BINDING): -0.6876; NES (GOMF_SUMO_BINDING, padj 0.00672226): -1.882; ES (GOMF_SUMO_TRANSFERASE_ACTIVITY): -0.594; NES (GOMF_SUMO_TRANSFERASE_ACTIVITY, padj 0.0682113): -1.626; ES (GOMF_S_ADENOSYLMETHIONINE_DEPENDENT_METHYLTRANSFERASE_ACTIVITY): -0.5424; NES (GOMF_S_ADENOSYLMETHIONINE_DEPENDENT_METHYLTRANSFERASE_ACTIVITY, padj 2.7667e-10): -2.336; ES (GOMF_THIOLESTER_HYDROLASE_ACTIVITY): 0.4211; NES (GOMF_THIOLESTER_HYDROLASE_ACTIVITY, padj 0.0377403): 1.7345; ES (GOMF_TRANSCRIPTION_COREGULATOR_BINDING): -0.4265; NES (GOMF_TRANSCRIPTION_COREGULATOR_BINDING, padj 0.0442278): -1.612; ES (GOMF_TRANSCRIPTION_COREPRESSOR_BINDING): -0.5161; ES (GOMF_TRANSITION_METAL_ION_BINDING): -0.2675; NES (GOMF_TRANSITION_METAL_ION_BINDING, padj 0.0113612): -1.302; ES (GOMF_TRANSLATION_REGULATOR_ACTIVITY): -0.5628; NES (GOMF_TRANSLATION_REGULATOR_ACTIVITY, padj 1.90601e-11): -2.407; ES (GOMF_TRNA_BINDING): -0.6579; NES (GOMF_TRNA_BINDING, padj 2.7667e-10): -2.532; ES (GOMF_UBIQUITIN_LIKE_PROTEIN_BINDING): -0.3584; NES (GOMF_UBIQUITIN_LIKE_PROTEIN_BINDING, padj 0.0474647): -1.467; ES (GOMF_UNFOLDED_PROTEIN_BINDING): -0.3758; NES GOCC_NUCLEOLUS (GSEA CAP vs Veh, C5 GO CC, padj 2.86725e-63): -2.612; NES GOCC_RIBONUCLEOPROTEIN_COMPLEX (GSEA CAP vs Veh, C5 GO CC, padj 3.5373e-43): -2.521; NES GOCC_NUCLEAR_BODY (GSEA CAP vs Veh, C5 GO CC, padj 3.83827e-29): -2.196; NES GOCC_PRERIBOSOME (GSEA CAP vs Veh, C5 GO CC, padj 8.43804e-27): -3.164; NES GOCC_CHROMOSOMAL_REGION (GSEA CAP vs Veh, C5 GO CC, padj 8.8925e-17): -2.317
